From ChEMBL document CHEMBL1152196, “Benzimidazole- and benzoxazole-based inhibitors of Rho kinase” (Bioorg Med Chem Lett, 2008)

What was measured:
[1] = Inhibition of PKA
[2] = target: T1, Rho-associated protein kinase 2 (Homo sapiens, UniProt O75116); assay: Inhibition of ROCK2
[3] = Metabolic stability in human liver microsomes; format: ADME, Microsome
[4] = target: T1, Rho-associated protein kinase 2; assay: Inhibition of ROCK2 assessed as myosin light chain phosphorylation by cell-based assay
[5] = target: CYP2C9 (Homo sapiens, UniProt P11712); assay: Inhibition of CYP2C9 at 10 uM; format: ADME
[6] = target: T2, CYP1A2 (Homo sapiens, UniProt P05177); assay: Inhibition of CYP1A2 at 10 uM; format: ADME
T2 sequence (P05177 whole entry): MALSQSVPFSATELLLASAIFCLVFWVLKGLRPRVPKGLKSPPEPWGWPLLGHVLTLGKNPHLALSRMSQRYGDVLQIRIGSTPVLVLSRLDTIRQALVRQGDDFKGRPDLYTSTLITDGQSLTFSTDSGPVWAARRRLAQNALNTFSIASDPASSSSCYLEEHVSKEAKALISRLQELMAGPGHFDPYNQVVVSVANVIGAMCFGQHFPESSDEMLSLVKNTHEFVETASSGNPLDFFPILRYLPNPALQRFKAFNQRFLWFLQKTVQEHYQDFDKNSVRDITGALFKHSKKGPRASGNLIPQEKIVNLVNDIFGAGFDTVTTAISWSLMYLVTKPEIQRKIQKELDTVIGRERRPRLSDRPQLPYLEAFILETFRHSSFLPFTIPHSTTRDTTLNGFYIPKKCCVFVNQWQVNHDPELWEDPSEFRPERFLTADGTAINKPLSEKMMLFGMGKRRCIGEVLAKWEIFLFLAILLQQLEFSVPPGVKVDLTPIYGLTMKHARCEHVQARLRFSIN

[7] = target: CYP2D6 (Homo sapiens, UniProt P10635); assay: Inhibition of CYP2D6 at 10 uM; format: ADME
[8] = target: CYP3A4 (Homo sapiens, UniProt P08684); assay: Inhibition of CYP3A4 at 10 uM; format: ADME
[9] = Clearance in rat at 1 mg/kg, iv or 2 mg/kg, po; format: ADME, organism-based; conditions: in vivo
[10] = Selectivity for ROCK2 over PKA
[11] = AUC in rat at 2 mg/kg, po; format: ADME, organism-based; parameters: dose 2 mg/kg, route oral; conditions: plasma
[12] = Half life in rat at 1 mg/kg, iv or 2 mg/kg, po; format: ADME, organism-based; conditions: in vivo
[13] = Oral bioavailability in rat at 2 mg/kg; format: ADME, organism-based; conditions: in vivo
[14] = Cmax in rat at 2 mg/kg, po; format: ADME, organism-based; parameters: dose 2 mg/kg, route oral; conditions: in vivo
[15] = Volume of distribution at steady state in rat at 1 mg/kg, iv or 2 mg/kg, po; format: ADME, organism-based; conditions: in vivo, read-out: Vdss
[16] = target: RAC-alpha serine/threonine-protein kinase (Homo sapiens, UniProt P31749); assay: Inhibition of Akt1
[17] = target: Mitogen-activated protein kinase 10 (Homo sapiens, UniProt P53779); assay: Inhibition of JNK3
[18] = target: Mitogen-activated protein kinase 8 (Homo sapiens, UniProt P45983); assay: Inhibition of JNK1
[19] = Inhibition of MRCK
[20] = Inhibition of p38 kinase

CYP2D6, sequence (P10635 whole entry): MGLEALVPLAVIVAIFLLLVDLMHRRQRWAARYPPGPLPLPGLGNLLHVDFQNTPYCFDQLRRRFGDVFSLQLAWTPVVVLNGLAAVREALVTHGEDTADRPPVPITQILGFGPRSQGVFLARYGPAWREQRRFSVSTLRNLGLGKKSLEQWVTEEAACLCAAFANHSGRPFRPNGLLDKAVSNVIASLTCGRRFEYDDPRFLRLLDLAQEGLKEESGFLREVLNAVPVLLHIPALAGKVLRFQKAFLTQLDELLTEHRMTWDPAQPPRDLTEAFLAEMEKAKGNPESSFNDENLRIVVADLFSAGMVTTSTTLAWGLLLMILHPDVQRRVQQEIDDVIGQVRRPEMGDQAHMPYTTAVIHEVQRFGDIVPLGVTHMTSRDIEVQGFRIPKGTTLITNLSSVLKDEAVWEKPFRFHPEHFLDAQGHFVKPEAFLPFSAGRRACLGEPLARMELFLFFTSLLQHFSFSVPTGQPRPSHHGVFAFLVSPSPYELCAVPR
CYP2C9, sequence (P11712 whole entry): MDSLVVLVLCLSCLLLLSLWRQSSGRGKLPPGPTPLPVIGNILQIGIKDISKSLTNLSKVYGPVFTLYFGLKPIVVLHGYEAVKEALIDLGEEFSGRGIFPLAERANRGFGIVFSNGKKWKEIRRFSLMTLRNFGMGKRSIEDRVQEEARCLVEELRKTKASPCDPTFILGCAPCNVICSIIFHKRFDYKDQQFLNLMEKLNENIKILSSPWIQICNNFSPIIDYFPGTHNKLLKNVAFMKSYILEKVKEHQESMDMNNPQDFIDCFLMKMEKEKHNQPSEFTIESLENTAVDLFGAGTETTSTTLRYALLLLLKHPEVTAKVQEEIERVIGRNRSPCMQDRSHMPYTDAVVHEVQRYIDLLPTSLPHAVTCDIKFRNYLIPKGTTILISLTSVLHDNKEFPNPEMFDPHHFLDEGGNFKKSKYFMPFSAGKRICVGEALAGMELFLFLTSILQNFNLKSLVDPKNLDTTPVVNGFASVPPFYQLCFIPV
CYP3A4, sequence (P08684 whole entry): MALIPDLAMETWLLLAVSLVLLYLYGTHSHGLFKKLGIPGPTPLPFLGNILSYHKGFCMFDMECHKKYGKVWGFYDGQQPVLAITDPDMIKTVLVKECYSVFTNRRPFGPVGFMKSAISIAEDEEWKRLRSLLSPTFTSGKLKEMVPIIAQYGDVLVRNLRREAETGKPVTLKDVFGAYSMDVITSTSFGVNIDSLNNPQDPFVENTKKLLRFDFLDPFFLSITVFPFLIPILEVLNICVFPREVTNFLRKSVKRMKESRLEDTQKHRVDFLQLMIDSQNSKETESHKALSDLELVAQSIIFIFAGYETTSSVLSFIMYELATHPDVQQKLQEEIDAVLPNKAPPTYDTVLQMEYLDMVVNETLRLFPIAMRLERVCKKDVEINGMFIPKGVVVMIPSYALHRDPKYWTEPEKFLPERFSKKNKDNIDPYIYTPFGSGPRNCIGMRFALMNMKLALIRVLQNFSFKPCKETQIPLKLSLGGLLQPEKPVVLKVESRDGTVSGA
T1 sequence (O75116 whole entry): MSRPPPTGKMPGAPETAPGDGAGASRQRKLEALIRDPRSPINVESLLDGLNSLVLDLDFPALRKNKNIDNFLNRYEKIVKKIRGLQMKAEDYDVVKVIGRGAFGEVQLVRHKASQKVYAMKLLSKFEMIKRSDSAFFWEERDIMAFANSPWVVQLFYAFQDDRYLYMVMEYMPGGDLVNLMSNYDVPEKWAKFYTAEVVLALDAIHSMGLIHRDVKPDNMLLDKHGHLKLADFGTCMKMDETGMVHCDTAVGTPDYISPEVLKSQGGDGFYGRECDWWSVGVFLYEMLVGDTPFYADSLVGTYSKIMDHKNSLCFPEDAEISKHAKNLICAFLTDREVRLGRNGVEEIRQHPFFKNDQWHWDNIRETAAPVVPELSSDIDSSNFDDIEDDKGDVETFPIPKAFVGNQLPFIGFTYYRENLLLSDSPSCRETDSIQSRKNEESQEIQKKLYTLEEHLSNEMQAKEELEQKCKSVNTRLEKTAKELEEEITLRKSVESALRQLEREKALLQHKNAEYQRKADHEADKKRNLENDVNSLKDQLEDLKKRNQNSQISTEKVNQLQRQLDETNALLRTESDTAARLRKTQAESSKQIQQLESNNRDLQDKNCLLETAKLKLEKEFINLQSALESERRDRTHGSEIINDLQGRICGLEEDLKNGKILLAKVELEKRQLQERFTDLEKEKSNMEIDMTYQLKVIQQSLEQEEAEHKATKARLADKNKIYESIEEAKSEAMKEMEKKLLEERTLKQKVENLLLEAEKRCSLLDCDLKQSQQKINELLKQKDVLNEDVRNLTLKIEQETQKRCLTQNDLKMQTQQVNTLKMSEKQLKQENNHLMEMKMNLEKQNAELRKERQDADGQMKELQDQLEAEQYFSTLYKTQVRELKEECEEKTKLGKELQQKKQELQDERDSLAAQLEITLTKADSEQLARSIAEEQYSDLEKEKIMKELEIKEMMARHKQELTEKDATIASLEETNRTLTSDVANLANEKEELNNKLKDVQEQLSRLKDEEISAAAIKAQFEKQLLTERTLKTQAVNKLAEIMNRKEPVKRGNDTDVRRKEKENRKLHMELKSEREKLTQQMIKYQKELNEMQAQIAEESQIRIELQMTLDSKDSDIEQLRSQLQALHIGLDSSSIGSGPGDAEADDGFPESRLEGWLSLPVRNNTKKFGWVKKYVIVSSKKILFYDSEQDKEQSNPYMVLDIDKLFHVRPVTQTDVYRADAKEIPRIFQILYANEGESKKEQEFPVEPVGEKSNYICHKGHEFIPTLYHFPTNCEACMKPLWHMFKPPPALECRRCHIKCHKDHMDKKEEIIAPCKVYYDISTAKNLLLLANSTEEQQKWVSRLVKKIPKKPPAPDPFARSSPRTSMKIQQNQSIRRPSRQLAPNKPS
RAC-alpha serine/threonine-protein kinase, sequence (P31749 whole entry): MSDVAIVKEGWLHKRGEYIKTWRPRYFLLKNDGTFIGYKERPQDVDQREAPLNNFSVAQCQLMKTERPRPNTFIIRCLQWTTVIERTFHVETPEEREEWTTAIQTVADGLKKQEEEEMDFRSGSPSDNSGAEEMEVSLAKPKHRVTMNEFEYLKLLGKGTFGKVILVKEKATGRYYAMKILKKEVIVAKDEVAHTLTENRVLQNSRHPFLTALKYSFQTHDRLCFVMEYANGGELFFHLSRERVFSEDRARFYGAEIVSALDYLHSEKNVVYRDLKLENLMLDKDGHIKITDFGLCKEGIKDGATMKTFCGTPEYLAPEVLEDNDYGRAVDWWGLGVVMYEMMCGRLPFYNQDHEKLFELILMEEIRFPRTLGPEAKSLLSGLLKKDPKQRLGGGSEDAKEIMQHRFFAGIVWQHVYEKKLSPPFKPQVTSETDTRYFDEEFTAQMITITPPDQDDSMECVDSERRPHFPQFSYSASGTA
Mitogen-activated protein kinase 10, sequence (P53779 whole entry): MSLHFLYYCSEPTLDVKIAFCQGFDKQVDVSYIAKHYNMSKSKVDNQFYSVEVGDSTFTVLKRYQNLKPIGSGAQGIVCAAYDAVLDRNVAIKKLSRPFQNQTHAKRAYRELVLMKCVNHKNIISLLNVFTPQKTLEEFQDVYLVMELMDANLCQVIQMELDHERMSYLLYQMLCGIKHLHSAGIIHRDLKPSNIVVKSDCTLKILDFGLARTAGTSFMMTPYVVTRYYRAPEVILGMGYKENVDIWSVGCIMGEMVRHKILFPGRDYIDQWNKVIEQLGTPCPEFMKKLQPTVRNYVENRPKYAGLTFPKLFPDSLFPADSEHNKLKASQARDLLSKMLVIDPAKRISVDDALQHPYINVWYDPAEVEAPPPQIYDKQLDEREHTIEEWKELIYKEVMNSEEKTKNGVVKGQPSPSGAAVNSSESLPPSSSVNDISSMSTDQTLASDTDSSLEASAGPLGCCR
Mitogen-activated protein kinase 8, sequence (P45983 whole entry): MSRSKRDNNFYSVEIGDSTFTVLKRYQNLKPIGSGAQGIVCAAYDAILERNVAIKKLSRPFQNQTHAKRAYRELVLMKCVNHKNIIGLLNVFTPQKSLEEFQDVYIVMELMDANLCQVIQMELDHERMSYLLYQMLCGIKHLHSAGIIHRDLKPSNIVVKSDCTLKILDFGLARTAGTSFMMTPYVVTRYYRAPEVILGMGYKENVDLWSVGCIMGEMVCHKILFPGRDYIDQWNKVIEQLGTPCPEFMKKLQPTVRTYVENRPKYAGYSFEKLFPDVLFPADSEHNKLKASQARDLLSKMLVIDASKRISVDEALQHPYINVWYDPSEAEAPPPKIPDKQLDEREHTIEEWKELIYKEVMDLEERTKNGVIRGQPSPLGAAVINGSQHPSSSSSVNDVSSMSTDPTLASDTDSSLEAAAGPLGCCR

Row | SMILES | IC50 [1] | IC50 [2] | half-life [3] | IC50 [4] | further results
1 | Cc1ccc2c(c1)CC(c1nc3ccc(-c4ccnc(N)n4)cc3o1)CO2 (stereo unspecified) | 6390 nM | 78 nM | 25 min |  | 
2 | Cc1[nH]ncc1-c1ccc2nc(C3COc4ccccc4C3)[nH]c2c1 (stereo unspecified) | 122 nM | 9 nM | 30 min |  | 
3 | Cc1[nH]ncc1-c1ccc2nc(C3COc4ccccc4C3)oc2c1 (stereo unspecified) | 778 nM | 9 nM | 70 min | 533 nM | 
4 | Nc1nccc(-c2ccc3nc(C4COc5ccc(F)cc5C4)oc3c2)n1 (stereo unspecified) | 2910 nM | 15 nM | 91 min | 28 nM | 
5 | c1ccc2c(c1)CC(c1nc3ccc(-c4cn[nH]c4)cc3o1)CO2 (stereo unspecified) | 1210 nM | 21 nM | 40 min | 330 nM | inhibition at 10 µM [5]: 80%; inhibition at 10 µM [6]: 27%; inhibition at 10 µM [7]: 41%; inhibition at 10 µM [8]: 15%
6 | Nc1nccc(-c2ccc3nc(C4COc5ccccc5C4)[nH]c3c2)n1 (stereo unspecified) | 198 nM | 8 nM | 44 min | 66 nM | inhibition at 10 µM [5]: 13%; inhibition at 10 µM [6]: 31%; inhibition at 10 µM [7]: 15%; inhibition at 10 µM [8]: -3%
7 | Nc1nccc(-c2ccc3nc(C4COc5ccccc5C4)oc3c2)n1 (stereo unspecified) | 1340 nM | 27 nM | 57 min |  | inhibition at 10 µM [5]: -8%; inhibition at 10 µM [6]: 0%; inhibition at 10 µM [7]: -4%; inhibition at 10 µM [8]: -6%
8 | CC(C)Oc1ccc2c(c1)CC(c1nc3ccc(-c4ccnc(N)n4)cc3[nH]1)CO2 (stereo unspecified) | 6380 nM | 296 nM |  |  | 
9 | COc1ccc2c(c1)CC(c1nc3ccc(-c4ccnc(N)n4)cc3[nH]1)CO2 (stereo unspecified) | 602 nM |  | 28 min | 99 nM | clearance [9]: 17 mL/min/kg; fold change (FC) [10]: 240; AUC [11]: 1.9 µM·h; half-life [12]: 138 min; bioavailability [13]: 35%; Cmax [14]: 900 nM; Vd [15]: 0.89 L/kg
10 | c1ccc2c(c1)CC(c1nc3ccc(-c4cn[nH]c4)cc3[nH]1)CO2 (stereo unspecified) | 168 nM | 27 nM | 20 min | 86 nM | inhibition at 10 µM [5]: 84%; inhibition at 10 µM [6]: 51%; inhibition at 10 µM [7]: 84%; inhibition at 10 µM [8]: 47%
11 | CC(C)Oc1ccc2c(c1)CC(c1nc3ccc(-c4ccnc(N)n4)cc3o1)CO2 (stereo unspecified) |  | 294 nM |  |  | 
12 | COC(=O)c1ccc2c(c1)CC(c1nc3ccc(-c4ccnc(N)n4)cc3o1)CO2 (stereo unspecified) |  | 24 nM |  |  | 

The next lines start with results.

Row | IC50 [1] | IC50 [2] | half-life [3] | IC50 [4] | SMILES | further results
13 | 10200 nM | 6 nM | 18 min | 271 nM | COC(=O)c1ccc2c(c1)CC(c1nc3ccc(-c4ccnc(N)n4)cc3[nH]1)CO2 (stereo unspecified) | 
14 | 317 nM | 2 nM | 29 min | < 6 nM | c1ccc2c(c1)CC(c1nc3ccc(-c4ccncc4)cc3[nH]1)CO2 (stereo unspecified) | inhibition at 10 µM [5]: 95%; inhibition at 10 µM [6]: 90%; inhibition at 10 µM [7]: 92%; inhibition at 10 µM [8]: 96%
15 | 270 nM | 6 nM | 45 min |  | Nc1nccc(-c2ccc3nc(C4COc5ccc(F)cc5C4)[nH]c3c2)n1 (stereo unspecified) | 
16 | 75 nM | < 1 nM | 25 min | 23 nM | Nc1nccc(-c2ccc3nc(C4COc5ccc(C(=O)NCc6ccccc6)cc5C4)[nH]c3c2)n1 (stereo unspecified) | 
17 | 397 nM | < 1 nM |  | < 6 nM | COc1ccc2c(c1)CC(c1nc3c(F)cc(-c4ccnc(N)n4)cc3[nH]1)CO2 (stereo unspecified) | IC50 [16]: 5000 nM; clearance [9]: 12 mL/min/kg; IC50 [17]: 16800 nM; IC50 [18]: 14100 nM; AUC [11]: 2.2 µM·h; half-life [12]: 84 min; IC50 [19]: 1100 nM; IC50 [20]: > 20000 nM; bioavailability [13]: 29%; Cmax [14]: 740 nM; Vd [15]: 0.63 L/kg
18 | 669 nM | < 1 nM | 79 min | 212 nM | Nc1nccc(-c2ccc3nc(C4COc5ccc(C(=O)NC6CC6)cc5C4)[nH]c3c2)n1 (stereo unspecified) | 
19 |  | 2 nM | 34 min | 46 nM | COc1ccc2c(c1)CC(c1nc3ccc(-c4ccnc(N)n4)cc3o1)CO2 (stereo unspecified) | clearance [9]: 8.4 mL/min/kg; fold change (FC) [10]: 950; AUC [11]: 6.6 µM·h; half-life [12]: 156 min; bioavailability [13]: 63%; Cmax [14]: 970 nM; Vd [15]: 1.6 L/kg
